Reference: patent publication US20060275800A1, “Process for characterization of the transactivation and transrepression activity of glucocorticoid receptor ligands in primary immune cells” (priority 2005, published 2006)

Legend:
CD163 [1] = test: In vitro mRNA expression of CD163 (transactivation parameter) in unstimulated human PBMC cultures; format: cell-based; conditions: for Transactivation vs. Prednisolone CD163: mRNA, PBMC cultures, GR-ligand/prednisolone quotient
Source text: (§1) Regarding the definition of suitable parameters, the regulation, mediated by standard glucocorticoids and selective GR ligands, of more than 50 genes in primary human immune cells was examined in a broad screening approach. Selected genes were further characterized in vitro and in vivo in kinetic experiments. […] Decisive criteria for the parameter selection were 1) the consistent reflection of transactivation or transrepression properties of GR ligands, 2) the detection of the regulation in non-stimulated immune cells, and 3) the quick reaction of the gene expression in in vitro assays (the 4-hour time period was used for the screening), and the good and enduring detectability after in vivo application of GR ligands. These properties make it likely that a direct regulation of the gene expression by the GR ligands will take place and that the parameters will be usable in in vivo studies (e.g., as biomarkers).
(§2) To have a comparison with a standard GK, the GR-ligand-influenced gene expressions for these parameters were normalized to the gene expression after treatment with the standard GK, prednisolone. […] It is clear to one skilled in the art that the normalization could also in principle be related to any other glucocorticoid.
(§3) For gene suppression, the “prednisolone/GR ligand” quotient was derived for purposes of normalization, i.e., a lower value (<1) indicates a relatively weaker suppression by the GR ligands (higher values in the residual gene expression).
(§4) For the mRNA detection, the total RNA was isolated from the respective samples (human PBMC or human whole blood or spleen cells from mice), transcribed in the cDNA and amplified and detected below by means of Real-time TaqMan-PCR (Applied Biosystems). A relative quantification in comparison to the expression of the “house-keeping” gene HPRT was carried out. In each case, the ratio of the result for the GR ligands to the result of the vehicle control is plotted.

TNF-α = test: In vitro mRNA expression of TNF-α (transrepression parameter) in unstimulated human PBMC cultures; format: cell-based; conditions: for Transrepression vs. Prednisolone TNF-α: mRNA, PBMC cultures, prednisolone/GR ligand quotient
Source text: as §1, §2, §3, §4

IL-1β = test: In vitro mRNA expression of IL-1β (transrepression parameter) in unstimulated human PBMC cultures; format: cell-based; conditions: for Transrepression vs. Prednisolone IL-1β: mRNA, PBMC cultures, prednisolone/GR ligand quotient
Source text: as §1, §2, §3, §4

FKBP51 [2] = test: In vitro mRNA expression of FKBP51 (transactivation parameter) in unstimulated human PBMC cultures; format: cell-based; conditions: for Transactivation vs. Prednisolone FKBP51: mRNA, PBMC cultures, GR-ligand/prednisolone quotient
Source text: as §1, §2, §3, §4

CD163 [3] = test: Time-dependent CD163 mRNA expression in human whole-blood cultures; format: cell-based
Procedure: as §4
(§5) For the parameters CD163 and FKBP51, in addition, the time-dependent influence of CR ligands on the mRNA expression in human whole-blood cultures was examined.

MMTV promoter = MMTV promoter luciferase transactivation assay in HeLa cells; format: cell-based, human
Source text: The promoter of the mouse mammary tumor virus (MMTV) contains specific binding sites for the activated GR (so-called GREs). This promoter was cloned before a reporter gene (luciferase), and the construct was integrated in a stable manner in the genome of the human cell line HeLa (cervix carcinoma cells). By adding test and reference substances, the MMTV promoter is activated, and the luciferase, whose activity can be detected by means of photometric measurement, is expressed.
(§6) The activities of SEGRA substances in the respective transactivation and transrepression systems are determined in comparison to the activities of the reference substance dexamethasone.

FKBP51 [4] = test: In vivo expression of FKBP51 in spleen cells of treated mice; conditions: after 24 hours
Procedure: as §4
(§7) The in vivo regulation of the expression of selected genes was characterized in the spleen cells of SEGRA-treated mice after 24 hours.

glutamine synthetase = test: In vivo expression of glutamine synthetase in spleen cells of treated mice; conditions: after 24 hours
Procedure: as §4, §7

FKBP51 [5] = test: Time-dependent FKBP51 mRNA expression in human whole-blood cultures; format: cell-based
Procedure: as §4, §5

GILZ = test: In vivo expression of GILZ in spleen cells of treated mice; conditions: after 24 hours
Procedure: as §4, §7

CD163 [6] = test: In vivo expression of CD163 in spleen cells of treated mice; conditions: after 24 hours
Procedure: as §4, §7

[7] = test system: tyrosinaminotransferase (TAT); test: Induction of tyrosinaminotransferase (TAT) activity in rat hepatoma cells (H4IIE3); format: cell-based; conditions: for effectiveness, induction of the TAT activity, % of the maximum dexamethasone effect / EC50: agonism, n=2; for EC50: read-out: power, induction of the TAT activity
Procedure: In a second transactivation system, the induction of the tyrosinaminotransferase (TAT) by glucocorticoids is determined. In the promoter of the gene for the TAT, GREs are also located, so that this gene is expressed in an enhanced form by binding of the ligand-activated GR. To this end, rat hepatoma cells (H4IIE3) are treated for 24 hours with test and reference substances, and then the TAT activity is determined by photometry. For the two assays, both the detection of agonistic actions of the SEGRA substances in the transactivation and the detection of antagonistic actions in the induction of the parameters by other GR ligands are possible.
as §6

[8] = test system: transactivation parameters; test: Gene induction in human PBMC (transactivation profile); format: cell-based; conditions: mRNA
Procedure: as §4
Below, by way of example, the application of the characterization of the transactivation and transrepression activity of selective GR ligands by means of gene expression analysis in primary immune cells is shown comparatively based on two SEGRA substances, the agonist in the transactivation, compound 1, and the antagonist in the transactivation, compound 2. The molecular mechanism of these substances had been previously characterized in the usual assays (see 5.2 and 5.3). The gene expression analysis was performed by means of quantitative Real-Time-TaqMan-PCR. The ratios (mean value±standard deviation) of the results for the GR ligands to the results for the vehicle control are shown.
In contrast to this, the different transactivation profile of the SEGRA substances is reflected in differing degrees of gene induction.

inflammatory cytokines = test: In vivo expression of inflammatory cytokines in spleen cells of treated mice; conditions: after 24 hours, vs vehicle control
Procedure: as §4, §7

[9] = human PBMC cultures, antagonism
[10] = human PBMC cultures, single substance

C[C@@H]1C[C@H]2[C@@H]3CCC4=CC(=O)C=C[C@]4(C)[C@@]3(F)[C@@H](O)C[C@]2(C)[C@@]1(O)C(=O)CO [Dexamethasone, dexamethasone]
Transactivation vs. Prednisolone CD163 (CD163 [1]; 1 hour): 1.02
Transactivation vs. Prednisolone CD163 (CD163 [1]; 2 hours): 1.89
Transactivation vs. Prednisolone CD163 (CD163 [1]; 4 hours): 1.34
Transactivation vs. Prednisolone CD163 (CD163 [1]; 12 hours): 1.13
Transactivation vs. Prednisolone CD163 (CD163 [1]; 24 hours): 1.04
Transrepression vs. Prednisolone TNF-α (TNF-α; 1 hour): 0.80
Transrepression vs. Prednisolone TNF-α (TNF-α; 2 hours): 0.85
Transrepression vs. Prednisolone TNF-α (TNF-α; 4 hours): 1.01
Transrepression vs. Prednisolone TNF-α (TNF-α; 12 hours): 1.00
Transrepression vs. Prednisolone TNF-α (TNF-α; 24 hours): 0.97
Transrepression vs. Prednisolone IL-1β (IL-1β; 1 hour): 0.61
Transrepression vs. Prednisolone IL-1β (IL-1β; 2 hours): 0.69
Transrepression vs. Prednisolone IL-1β (IL-1β; 4 hours): 1.27
Transrepression vs. Prednisolone IL-1β (IL-1β; 12 hours): 0.96
Transrepression vs. Prednisolone IL-1β (IL-1β; 24 hours): 1.16
Transactivation vs. Prednisolone FKBP51 (FKBP51 [2]; 1 hour): 0.89
Transactivation vs. Prednisolone FKBP51 (FKBP51 [2]; 2 hours): 1.13
Transactivation vs. Prednisolone FKBP51 (FKBP51 [2]; 4 hours): 1.08
Transactivation vs. Prednisolone FKBP51 (FKBP51 [2]; 12 hours): 1.07
Transactivation vs. Prednisolone FKBP51 (FKBP51 [2]; 24 hours): 1.05

Cc1noc(=O)c2ccc(NC(=O)C(O)(CC(C)(C)c3cccc4c3OCO4)C(F)(F)F)cc12 (centres unmarked) [compound 1]
time-dependent influence on CD163 mRNA expression (CD163 [3]): induced the expression of these genes permanently
antagonistic effect in the MMTV promoter assay (in words) (MMTV promoter): antagonistic effect neither
EC50 (MMTV promoter; Homo sapiens, agonism, n=2, read-out: power, induction of the activity of the MMTV promoter): 10 ± 1.4 nM
effectiveness, induction of the MMTV promoter, % of the maximum dexamethasone effect (MMTV promoter; agonism, n=2): 73±2.8%
expression of FKBP51 (FKBP51 [4]): clear induction
expression of glutamine synthetase (glutamine synthetase): clear induction
time-dependent influence on FKBP51 mRNA expression (FKBP51 [5]): induced the expression of these genes permanently
expression of GILZ (GILZ): clear induction
expression of CD163 (CD163 [6]): clear induction
effectiveness, induction of the TAT activity, % of the maximum dexamethasone effect ([7]; rat hepatoma cells): 86±12.7%
EC50 ([7]; rat hepatoma cells): 5.7 ± 0.6 nM
gene induction [8]: clearly induces

Cc1noc(=O)c2ccc(NC(=O)C(O)(CC(C)(C)c3cc(F)ccc3C(F)(F)F)C(F)(F)F)cc12 (centres unmarked) [compound 2]
CD163 expression in all batches (CD163 [1]; human PBMC cultures, alone and with prednisolone): reduced
induction of CD163 on simultaneous administration with prednisolone, in comparison to prednisolone alone (CD163 [1]; [9]): clearly lower
induction of CD163 (in words) (CD163 [1]; [10]): not
time-dependent influence on CD163 mRNA expression (CD163 [3]): did not lead to the increase of the gene expression
antagonistic effect in the MMTV promoter assay (in words) (MMTV promoter): clear antagonist
IC50 (MMTV promoter; Homo sapiens, antagonism, n=3, read-out: power, antagonism of the MMTV promoter activity induced by dexamethasone): 85 ± 12 nM
effectiveness, antagonism of dexamethasone-induced MMTV promoter activity, % of the maximum effect of the GR antagonist RU 486 (MMTV promoter; antagonism, n=3): 119±3.6%
expression of FKBP51 (FKBP51 [4]): reduces the expression
expression of glutamine synthetase (glutamine synthetase): reduces the expression
suppression of the mRNA expression of TNF-α (in words) (TNF-α; [10]): suppression
time-dependent influence on FKBP51 mRNA expression (FKBP51 [5]): did not lead to the increase of the gene expression
expression of GILZ (GILZ): reduces the expression
suppression of the mRNA expression of IL-1β (in words) (IL-1β; [10]): suppression
expression of CD163 (CD163 [6]): reduces the expression
Emax ([7]; Rattus norvegicus, at a concentration of 1 μmol, read-out: antagonism of the dexamethasone-induced TAT activity, % of the maximum effect of RU 486): 35%
effectiveness, induction of the TAT activity, % of the maximum dexamethasone effect ([7]; rat hepatoma cells): 43.5±10.6%
EC50 ([7]; rat hepatoma cells): 67 ± 10 nM
behaviour in the TAT promoter (in words) ([7]; rat hepatoma cells): partial agonist
inhibition of the inflammatory cytokines (transrepression) (inflammatory cytokines): less pronounced
induction of FKBP51 on simultaneous administration with prednisolone, in comparison to prednisolone alone (FKBP51 [2]; [9]): clearly lower
gene induction [8]: lower gene induction or no gene induction
